Read-outs that look alike come from different tables or passages of the source.
Key:
CD 34+ HSCs = settings: LPS-activated HSC (10 ng/mL LPS overnight), single treatment with NP001 300 μM, grown 3 days, RNAseq
Procedure: CD 34+ HSCs were isolated from normal human adult bone marrow (>95% pure) and were either stimulated by 10 ng/mL LPS overnight or control medium. NP001 was added (300 μM; equivalent to phase 2 dose in humans) to washed HSC controls and LPS-activated HSC and the cells grown for 3 days in HSC medium. RNAseq with 100 M reads was performed on all cells and pathway analysis was performed.
By comparison with non-LPS-activated cells, LPS-activated pathways with p<10-15 were defined. […] NP001-treated, LPS-activated HSC gene expression pathways were evaluated in parallel. […] In addition, LPS-activated HSC were evaluated for factors (e.g., protein and genes), that were modulated following treatment with NP001.

patients with ALS = tested on: patients with ALS
Text: Non-limiting examples of measures of clinical response include the ALS Functional Rating Scale Revised (ALSFRS-R) and respiratory vital capacity.
Stem cell reprogramming for long term disease regulation is evidenced by finding normalization of biomarkers for at least one month after the last dose in the 6-month administration procedure.
A major subset of ALS patients show evidence for ongoing inflammation that potentially contributes to disease progression.

[1] = ALS patients with plasma CRP levels >1.13 mg/L
[2] = clinical responders, 6-month pulse therapy, at least one month after last dose
[3] = mechanism of action studies in patients with ALS

sodium chlorite [NP001]
HSC gene expression pathways stimulated by LPS (CD 34+ HSCs): reversed | disease progression (patients with ALS; [1]): slowing disease progression | innate immune function (patients with ALS; [1]): restore innate immune function | plasma epidermal growth factor (EGF), long term change (patients with ALS; [2]): upregulation | plasma hepatocyte growth factor (HGF), long term change (patients with ALS; [2]): downregulation | plasma interleukin-10 (IL-10), long term change (patients with ALS; [2]): upregulation | plasma interleukin-18 (IL-18), long term change (patients with ALS; [2]): downregulation | plasma lipopolysaccharide (LPS), long term change (patients with ALS; [2]): downregulation | plasma lipopolysaccharide binding protein (LBP), long term change (patients with ALS; [2]): downregulation | plasma neopterin, long term change (patients with ALS; [2]): upregulation | plasma soluble CD163 (sCD163), long term change (patients with ALS; [2]): downregulation | 8 biomarkers associated with microbial translocation (patients with ALS; intermittent dosing (3 days/month), patients whose disease slowed): prolonged regulation | disease progression (patients with ALS; [3]): slowing disease progression | innate immune function (patients with ALS; [3]): restore innate immune function

Reference: patent US20250114396A1, “CHLORITE USES FOR STEM CELLS” (The Regents of the University of California, priority 2023, published 2025)
